Reference: patent US6420422B1, “Ocular hypotensive agents” (Sucampo Pharmaceuticals, Inc., priority 1987, dated 2002)

Key:
[1] = test system: Japanese White male rabbits; test: Intraocular pressure reduction and conjunctival hyperemia (Example 5, Table 1 (1)-(6)); type: in vivo; conditions: intraocular pressure reduction (%), topical
Description: (§1) For the purpose of tonometry, Japanese White male rabbits (2.5-3.0 Kg) were fixed on braces. After topical anesthetization with 0.4% oxybuprocaine hydrochloride, intraocular pressure was measured using a pheumatic applanation tonometer (manufactured by Japan Alcon). After the topical application of 50 μl of the suspensions of the test drugs in a physiological saline to one eye, the intraocular pressure was measured and the intraocular pressure reduction (%) caused by each test drug was calculated. At the same time, the extent of conjunctival hyperemia was observed.

[2] = test system: Japanese White male rabbits; test: as above; type: in vivo; design: key: −: scarcely observed; ±: extremely weak hyperemia; +: slight hyperemia; ++: pronounced hyperemia; +++: severe hyperemia; +++*: *: Lid closure and lacrimation were observed; conditions: extent of conjunctival hyperemia, topical
Description: as §1

[3] = test system: Japanese White male rabbits; test: as above; type: in vivo; design: key: −: none; +−: barely visible hyperemia; +: slight hyperemia; ++: moderate hyperemia; +++: severe hyperemia; +++*: *: lid-closing and severe hyperemia are observed; conditions: extent of conjunctival hyperemia; topical, dose 100 μg/eye
Description: as §1

[4] = prior art statement; cited from earlier work
[5] = test system: Japanese White male rabbits; test: Change in intraocular pressure with time after application (Example 4, FIG. 1); type: in vivo; conditions: topical 25 μg/eye, every 1 hr until 6 hr, 6 rabbits per group
Description: FIG. 1 is a graph showing change in intraocular pressure with time after application of prostaglandins E2 to rabbits, wherein applied drugs were as follows:
For the purpose of tonometry, Japanese White male rabbits (2.5-3.0 Kg) were fixed on braces, and after topical anesthetization with 0.4% oxybuprocaine hydrochloride, intraocular pressure was measured using a pheumatic applanation tonometer (manufactured by Japan Alcon K.K.).
The test drugs were suspended in a physiological saline. A 50 μl aliquot […] of the suspension (25 μg/eye of the test drug) was topically applied to one eye. The contralateral control eye received physiological saline. Intraocular pressure was measured at every 1 hr, until 6 hr, after topical application. In this experiment, 6 rabbits per group were used, and the mean values of intraocular pressure of the treated eye at each time were calculated.

SMILES: CCCCCCCCC(=O)CCC1C(O)CC(O)C1C/C=C\CCCC(=O)OC (stereo not drawn) [Test Drug (90), 13,14-dihydro-15-keto-20-n-propyl-PGF2^α methyl ester]
- Percent change of IOP ([1]; dose 250 μg/eye): 25%
- Hyperemia ([2]; dose 250 μg/eye): ±

SMILES: CCCCCC(=O)CCC1C(=O)CC(O)C1C/C=C\CCCC(=O)OCC (stereo not shown) [Test Drug (30), 13,14-dihydro-15-keto-PGD2 ethyl ester]
- Percent change of IOP ([1]; dose 250 μg/eye): 20%
- Hyperemia ([2]; dose 250 μg/eye): ±

SMILES: CCCCC(F)C(=O)CCC1C(=O)CC(O)C1C/C=C\CCCC(=O)OC (stereo not shown) [Test Drug (35), 13,14-dihydro-15-keto-16R,S-fluoro-PGD2 methyl ester]
- Percent change of IOP ([1]; dose 100 μg/eye): 13%
- Hyperemia [3]: +

SMILES: CCCCCC(=O)CCC1C(=O)CC(O)C1CC#CCCCC(=O)OC (stereo not drawn) [Test Drug (34), 13,14-dihydro-15-keto-5,6-dehydro-9β-PGD2 methyl ester]
- Percent change of IOP ([1]; dose 250 μg/eye): 23%
- Hyperemia ([2]; dose 250 μg/eye): ±

SMILES: CCCCCC(=O)/C=C/[C@@H]1[C@@H](C/C=C\CCCC(=O)O)[C@@H](O)C[C@H]1O [15-keto-PGF2]
- Ocular hypotensive activity (in words) [4]: a very little

SMILES: CCCCC[C@H](O)/C=C/[C@H]1[C@H](O)CC(=O)[C@@H]1C/C=C\CCCC(=O)O [Test Drug (73), PGE2, reference compound]
- Intraocular pressure response (in words) [5]: transient ocular hypertensive response

SMILES: CCCCCC(=O)CC[C@H]1[C@H](O)CC(=O)[C@@H]1C/C=C\CCCC(=O)O [Test Drug (56), 13,14-dihydro-15-keto-PGE2]
- Intraocular pressure response (in words) [5]: ocular hypotensive potency without transient ocular hypertensive response

SMILES: CCCCC[C@H](O)/C=C/[C@@H]1[C@@H](C/C=C\CCCC(=O)O)[C@@H](O)C[C@H]1O [PGF2]
- Ocular hypotensive activity (in words) [4]: high ocular hypotensive activity

SMILES: CCCCCC(=O)CCC1C=CC(=O)C1C/C=C\CCCC(=O)OCC (stereo not shown) [Test Drug (3), 13,14-dihydro-15-keto-PGA2 ethyl ester]
- Percent change of IOP ([1]; dose 100 μg/eye): 24%
- Hyperemia [3]: +

SMILES: CCCCCCCC(=O)CCC1C=CC(=O)C1C/C=C\CCCC(=O)OC(C)C (stereo not shown) [Test Drug (8), 13,14-dihydro-15-keto-20-ethyl-PGA2 isopropyl ester]
- Percent change of IOP ([1]; dose 50 μg/eye): 27%
- Hyperemia ([2]; dose 50 μg/eye): −
